Assay results published in PubChem BioAssay (NCI).
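Cultured in 96-well plates, cells were exposed to test compound for 48 hours across five concentrations. Abbreviation: GI50, concentration required for 50% inhibition of growth. Definition used: TGI = concentration required for complete inhibition of growth.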

Experiments:
Test in all cases: NCI-60 cell line screen, 48 h
[1] = test system: CAKI-1 renal
[2] = test system: SNB-19 CNS
[3] = test system: HCT-15 colon
[4] = test system: LOX IMVI melanoma
[5] = test system: UACC-257 melanoma
[6] = test system: U251 CNS
[7] = test system: SR leukemia
[8] = test system: OVCAR-5 ovarian
[9] = test system: KM12 colon
[10] = test system: NCI-H23 lung

Row | SMILES | GI50 [1] [nM] | TGI [1] [µM] | GI50 [2] [nM] | TGI [2] [µM] | GI50 [3] [nM] | TGI [3] [µM] | GI50 [4] [nM] | TGI [4] [µM] | GI50 [5] [nM] | TGI [5] [µM] | GI50 [6] [nM] | TGI [6] [µM] | GI50 [7] [nM] | TGI [7] [µM] | GI50 [8] [nM] | TGI [8] [µM] | GI50 [9] [nM] | TGI [9] [µM] | GI50 [10] [nM] | TGI [10] [µM]
1 | CSc1nc2nc3c(nc2c(=O)n1C)C(=O)c1ccccc1C3=O | 300 | 1 | 304 | 1.28 | 164 | 0.429 | 128 | 0.315 | 131 | 0.265 | 229 | 0.612 | 332 | > 100 | 199 | 0.355 | 278 | 0.994 | 142 | 0.422
2 | CCN(CC)CCCC(C)Nc1cc(-c2cccc(OC(F)(F)F)c2)nc2ccc(N3CCCC3)cc12 (centres undefined) | 42.2 | 31.5 | 118 | > 100 | 41.5 | 12.4 | 63.8 | 14.6 | 970 | 47.7 | 47.3 | 21.9 | 36.5 | > 100 | 348 | > 100 | 43.7 | 11.4 | 161 | > 64
3 | CCC[CH2][Sn]([CH2]CCC)([S]C#N)[S]C#N | 320 | 1.87 | 1120 | 2.36 | 1180 | 2.53 | 850 | 2.47 | 965 | 2.4 | 768 | 2.04 | 360 | 2.54 | 1560 | 2.96 | 1450 | 3.11 | 609 | 2.14
4 | NC(=O)c1ccc(Oc2nccc(-c3c(-c4ccc(F)cc4)ncn3C3CCNCC3)n2)cc1 | > 25000 | > 25 | > 25000 | > 25 | > 25000 | > 25 | > 25000 | > 25 | > 25000 | > 25 | > 25000 | > 25 | > 25000 | > 25 | > 25000 | > 25 | > 25000 | > 25 | > 25000 | > 25
5 | CCCCC#Cc1c(I)n(C)c(=O)[nH]c1=O | – | 0.0843 | 14600 | 29.1 | 1520 | 2.87 | 1620 | 2.97 | 2460 | 5.5 | 2420 | 6.85 | 895 | 2.09 | 6380 | 19.2 | 16000 | 29.5 | 2140 | 4.43
6 | COc1ccc2nc(C(=O)c3ccccc3)c(C)cc2c1 | – | > 100 | – | > 100 | – | > 40.8 | – | > 100 | – | 26.4 | – | 10.8 | – | > 100 | – | > 100 | – | > 45.8 | – | 11.1
7 | O=C(O)/C(Cc1cn[nH]n1)=N\O | – | > 100 | – | > 100 | – | > 100 | – | > 100 | – | > 100 | – | > 100 | – | > 100 | – | > 100 | – | > 100 | – | > 100
8 | C1CN(c2nnc(N3CCC3)nn2)C1 | – | > 100 | – | > 79.5 | – | > 100 | – | 36.1 | – | 49.4 | – | > 92.6 | – | > 100 | – | > 46.4 | – | > 100 | – | 79.7
9 | O=C(CN(/C=C/C(=O)C(F)(F)F)c1ccc(Cl)cc1)c1ccc(Cl)c(Cl)c1 | 3610 | 12.7 | 15400 | 33.6 | 4240 | 17.2 | 4130 | 16.6 | 14000 | 30.2 | 5370 | 16.8 | 2260 | 6.96 | 13400 | 27.1 | 2620 | 10.8 | 6100 | 19.2
10 | COc1ccc(C2=Nc3ccccc3SC(C)C2)cc1OC (centres undefined) | – | 50.4 | – | 40.2 | – | 31.9 | – | 32.9 | – | 49.6 | – | 30.9 | – | 57.4 | – | 52.6 | – | 36.3 | – | 38.5
11 | O=C(NCCCc1cn[nH]c1)c1ccc(-c2ccncc2)c(C#Cc2ccc(F)cc2)c1 | 6920 | > 100 | 229 | > 100 | < 10 | > 57.9 | 913 | 53.6 | 17600 | > 100 | 243 | > 100 | 2530 | > 100 | 122 | > 100 | < 15.5 | > 83.2 | 14500 | > 100
12 | CN(C)CCCn1c(=O)c2ccccc2c2cnc3[nH]ccc3c21 | 1940 | 4.66 | 2190 | 10.6 | 2000 | 9.58 | 631 | 3.27 | 2260 | 5.59 | 2120 | 7.21 | 630 | 13.6 | 2270 | 14.9 | 1630 | 9.78 | 1760 | 6.62
13 | Cc1ccc(NC(=O)C(=O)CC(=O)c2c(C)n([O-])c3ccccc3[n+]2=O)cc1C | – | > 100 | – | > 100 | – | > 100 | – | > 100 | – | > 100 | – | > 100 | – | > 100 | – | > 100 | – | > 100 | – | > 100
